Target: T1, human renal renin (Homo sapiens, UniProt P00797)
T1 construct: human renal renin, free from acid proteolytic activity; from tissue
T1 sequence (P00797 67-406): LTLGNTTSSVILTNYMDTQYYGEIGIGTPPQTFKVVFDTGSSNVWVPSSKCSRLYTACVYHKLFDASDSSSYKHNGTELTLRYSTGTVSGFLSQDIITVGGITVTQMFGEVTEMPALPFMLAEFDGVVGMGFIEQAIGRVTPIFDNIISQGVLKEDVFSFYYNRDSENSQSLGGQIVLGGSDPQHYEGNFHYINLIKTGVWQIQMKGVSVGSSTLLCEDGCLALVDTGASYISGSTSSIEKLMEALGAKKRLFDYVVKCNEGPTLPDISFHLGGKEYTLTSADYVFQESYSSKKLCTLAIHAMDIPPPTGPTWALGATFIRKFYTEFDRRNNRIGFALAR
Assay: Inhibition of human renal renin in vitro (angiotensin I formed measured by radioimmunoassay)
Type: biochemical
Conditions: human renal renin free from acid proteolytic activity, renin substrate human angiotensinogen, 37 degrees C, pH 6.0; read-out: IC50 (molar concentration required to cause 50% inhibition)
Method: The compounds of the invention are also useful for treating congestive heart failure in a mammal. […] At the end of the incubation, the amount of angiotensin I formed is measured by radioimmunoassay and the molar concentration required to cause 50% inhibition, expressed as the IC50, is calculated.

IC50 [nM] | Compound
0.15 | CC(C)C[C@H](O)[C@H](O)[C@H](CC1CCCCC1)NC(=O)[C@H](Cc1cscn1)NC(=O)[C@H](Cc1ccccc1)N1CCOCC1 [Example 113, (2S)-2-(4-Morpholinyl)-3-phenylpropionyl-L-(4-thiazolyl)Ala Amide of (2S,3R,4S)-2-Amino-1-cyclohexyl-3,4-dihydroxy-6-methylheptane]
0.33 | CC(C)C[C@H](O)[C@H](O)[C@H](CC1CCCCC1)NC(=O)[C@H](Cc1cscn1)NC(=O)[C@@H](CC(=O)N(C)CCc1ccccn1)Cc1ccccc1 [Example 114]
0.78 | COc1ccc(C[C@H](NC(=O)N(C)CCc2ccccn2)C(=O)N[C@@H](Cc2cscn2)C(=O)N[C@@H](CC2CCCCC2)[C@@H](O)[C@@H](O)CC(C)C)cc1 [Example 115, [2-Pyridin-2-ylethyl(methyl)amino]carbonyl(O-methyl)pyrosine-L-(4-thiazolyl)Ala Amide of (2S,3R,4S)-2-Amino-1-cyclohexyl-3,4-dihydroxy-6-methylheptane]
0.3 | CC(C)C[C@H](O)[C@H](O)[C@H](CC1CCCCC1)NC(=O)[C@H](Cc1cscn1)NC(=O)[C@@H](CC(=O)N(C)CCn1ccnc1)Cc1ccccc1 [Example 117, (2R)-2-Benzyl-3-[(2-imidazol-1-ylethyl)methylaminocarbonyl]propionyl-L-(4-thiazolyl)Ala Amide of (2S,3R,4S)-2-Amino-1-cyclohexyl-3,4-dihydroxy-6-methylheptane]
0.33 | CC(C)C[C@H](O)[C@H](O)[C@H](CC1CCCCC1)NC(=O)[C@H](Cn1cccn1)NC(=O)[C@@H](CC(=O)N(C)CCc1ccccn1)Cc1ccccc1 [Example 119, (2R)-2-Benzyl-3-[(2-pyridin-2-ylethyl)methylaminocarbonyl]propionyl-L-(1-pyrazolyl)Ala Amide of (2S,3R,4S)-2-Amino-1-cyclohexyl-3,4-dihydroxy-6-methylheptane]
0.33 | CCCC[C@H](NC(=O)[C@@H](CC(=O)N(C)CCn1cccn1)Cc1ccccc1)C(=O)N[C@@H](CC1CCCCC1)[C@@H](O)[C@@H](O)CC(C)C [Example 121, (2R)-2-Benzyl-3-[(2-pyrazol-1-ylethyl)methylaminocarbonyl]propionyl-Nle Amide of (2S,3R,4S)-2-Amino-1-cyclohexyl-3,4-dihydroxy-6-methylheptane]
0.26 | CCCC[C@H](NC(=O)[C@@H](CC(=O)N(C)CCn1ccnc1)Cc1ccccc1)C(=O)N[C@@H](CC1CCCCC1)[C@@H](O)[C@@H](O)CC(C)C [Example 123, (2R)-2-Benzyl-3-[(2-imidazol-1-ylethyl)methylaminocarbonyl]propionyl-Nle Amide of (2S,3R,4S)-2-Amino-1-cyclohexyl-3,4-dihydroxy-6-methylheptane]
0.34 | CC(C)C[C@H](O)[C@H](O)[C@H](CC1CCCCC1)NC(=O)[C@H](Cc1cscn1)NC(=O)[C@@H](CC(=O)N(C)c1ccncc1)Cc1ccccc1 [Example 124, (2R)-2-Benzyl-3-[(N-pyridin-4-yl)methylaminocarbonyl]propionyl-L-(4-thiazolyl)Ala Amide of (2S,3R,4S)-2-Amino-1-cyclohexyl-3,4-dihydroxy-6-methylheptane]
1.3 | CC(C)C[C@H](O)[C@H](O)[C@H](CC1CCCCC1)NC(=O)C(Cn1cccn1)N(C)C(=O)[C@@H](CC(=O)N(C)CCc1ccccn1)Cc1ccccc1 (stereo partly drawn) [Example 134, (2R)-2-Benzyl-3-[(2-pyridin-2-ylethyl)methylaminocarbonyl]propionyl-(N-α-methyl)-(1-pyrazolyl) alanine Amide of (2S,3R,4S)-2-Amino-1-cyclohexyl-3,4-dihydroxy-6-methylheptane]

Further lines, the molecule ahead of its results:

Compound | IC50 [nM]
CC(C)C[C@H](NC(=O)[C@H](Cc1cscn1)NC(=O)[C@@H](CC(=O)N(C)CCn1cccn1)Cc1ccccc1)[C@@H](O)[C@@H](O)CC(C)C [Example 111, (2R)-2-Benzyl-3-[(2-pyrazol-1-ylethyl)methylaminocarbonyl]propionyl-L-(4-Thiazolyl)Ala Amide of (4S,5R,6S)-6-Amino-4,5-dihydroxy-2,8-dimethylnonane] | 0.49
CC[C@H](O)[C@H](O)[C@H](CC1CCCCC1)NC(=O)[C@H](Cc1cscn1)NC(=O)[C@@H](CC(=O)N(C)CCn1cccn1)Cc1ccccc1 [Example 112, (2R)-2-Benzyl-3-[(2-pyrazol-1-ylethyl)methylaminocarbonyl]propionyl-L-(4-Thiazolyl)Ala Amide of (2S,3R,4S)-2-Amino-1-cyclohexyl-3,4-dihydroxyhexane] | 0.25
CC(C)C[C@H](O)[C@H](O)[C@H](CC1CCCCC1)NC(=O)[C@H](Cc1cscn1)NC(=O)[C@@H](CC(=O)N(C)CCN1CCN(C)CC1)Cc1ccccc1 [Example 116, (2R)-2-Benzyl-3-[2-(4-methyloioerazin-1-ylethyl)methylaminocarbonyl]propionyl-L-(4-thiazolyl) Ala Amide of (2S,3R,4S)-2-Amino-1-cyclohexyl-3,4-dihydroxy-6-methylheptane] | 0.35
CC(C)C[C@H](O)[C@H](O)[C@H](CC1CCCCC1)NC(=O)[C@H](Cc1cscn1)NC(=O)[C@@H](CC(=O)N(C)CCn1cccn1)Cc1ccccc1 [Example 118, (2R)-2-Benzyl-3-[(2-pyrazol-1-ylethyl)methylaminocarbonyl]propionyl-L-(4-thiazolyl)Ala Amide of (2S,3R,4S)-2-Amino-1-cyclohexyl-3,4-dihydroxy-6-methylheptane] | 0.3
CC(C)C[C@H](O)[C@H](O)[C@H](CC1CCCCC1)NC(=O)[C@H](Cn1cccn1)NC(=O)[C@@H](CC(=O)N(C)CCn1ccnc1)Cc1ccccc1 [Example 120, (2R)-2-Benzyl-3-[(2-imidazol-1-ylethyl)methylaminocarbonyl]propionyl-L-(1-pyrazolyl)Ala Amide of (2S,3R,4S)-2-Amino-1-cyclohexyl-3,4-dihydroxy-6-methylheptane] | 0.22
CCCC[C@H](NC(=O)[C@@H](CC(=O)N(C)CCc1ccccn1)Cc1ccccc1)C(=O)N[C@@H](CC1CCCCC1)[C@@H](O)[C@@H](O)CC(C)C [Example 122, (2R)-2-Benzyl-3-[(2-pyridin-2-ylethyl)methylaminocarbonyl]propionyl-Nle Amide of (2S,3R,4S)-2-Amino-1-cyclohexyl-3,4-dihydroxy-6-methylheptane] | 0.43
CC(C)C[C@H](O)[C@H](O)[C@H](CC1CCCCC1)NC(=O)[C@H](Cc1cscn1)NC(=O)[C@@H](CC(=O)N1CCN(C2CC2)CC1)Cc1ccccc1 [Example 125, (2R)-2-Benzyl-3-[(4-cyclopropylpiperazin-1-yl)carbonyl]propionyl-L-(4-thiazolyl)Ala Amide of (2S,3R,4S)-2-Amino-1-cyclohexyl-3,4-dihydroxy-6-methylheptane] | 0.55
CC(C)C[C@H](O)[C@H](O)[C@H](CC1CCCCC1)NC(=O)[C@H](Cn1cccn1)NC(=O)[C@@H](CC(=O)N(C)CCN1CCOCC1)Cc1ccccc1 [Example 140, (2R)-2-Benzyl-3-[(2-morpholin-4-ylethyl)methylaminocarbonyl]propionyl-L-(1-pyrazolyl)Ala Amide of (2S,3R,4S)-2-Amino-1-cyclohexyl-3,4-dihydroxy-6-methylheptane.] | 0.12

Source: US5063208A, “Peptidyl aminodiol renin inhibitors” (Abbott Laboratories, priority 1990, dated 1991)
